Assay results reported in patent US7741327B2 (Hoffmann-La Roche Inc., priority 2008, dated 2010).

Target: T1, Recombinant human liver GK1 (GST-GK) (Homo sapiens, UniProt P35557)
T1 construct: made in house; host or cells: E. coli
T1 sequence (P35557 1-466 isoform P35557-2): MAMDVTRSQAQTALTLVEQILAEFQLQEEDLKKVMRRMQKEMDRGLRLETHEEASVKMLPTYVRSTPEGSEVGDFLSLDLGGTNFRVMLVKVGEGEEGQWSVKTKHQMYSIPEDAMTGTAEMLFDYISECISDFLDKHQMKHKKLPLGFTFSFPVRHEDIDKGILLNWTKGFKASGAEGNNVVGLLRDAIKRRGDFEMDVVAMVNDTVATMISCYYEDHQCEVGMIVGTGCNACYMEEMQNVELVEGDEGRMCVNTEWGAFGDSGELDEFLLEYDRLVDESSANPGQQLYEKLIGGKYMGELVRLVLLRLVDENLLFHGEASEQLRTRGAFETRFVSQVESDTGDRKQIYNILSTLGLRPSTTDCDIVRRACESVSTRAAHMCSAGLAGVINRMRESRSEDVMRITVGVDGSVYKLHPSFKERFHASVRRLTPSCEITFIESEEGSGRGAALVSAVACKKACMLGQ
Experiment: In vitro glucokinase activity (G6PDH-coupled NADH assay)
Format: biochemical
Details: 30° C., 5 mM D-glucose, 10% DMSO
Procedure, shortened: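 GST-tagged human liver GK1 from E. coli, assayed at 30° C in 25 mM Hepes pH 7.1 with 5 mM D-glucose, 1 mM ATP, 1.8 mM NAD and G6PDH coupling, 10% DMSO final; reaction started with enzyme after 10 min preincubation. NADH formation followed at OD340; SC1.5 is activator concentration giving 50% increase over DMSO control rate.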

Row | SC1.5 (concentration of activator that produced a 50% increase in the activity of GK) [µM] | Compound
1 | 0.239 | CCOc1cccc(OC2=CC(=O)N([C@@H](CC(C)C)C(=O)Nc3ccn(CC(C)(C)O)n3)C2)c1 [Example 163, (S)-2-[4-(3-Ethoxy-phenoxy)-2-oxo-2,5-dihydro-pyrrol-1-yl]-4-methyl-pentanoic acid [1-(2-hydroxy-2-methyl-propyl)-1H-pyrazol-3-yl]-amide]
2 | 0.22 | CCOc1ccc(F)c(OC2=CC(=O)N([C@@H](CC(C)C)C(=O)Nc3ccn(C[C@@H]4COC(C)(C)O4)n3)C2)c1F [Example 116, (S)-2-[4-(3-Ethoxy-2,6-difluoro-phenoxy)-2-oxo-2,5-dihydro-pyrrol-1-yl]-4-methyl-pentanoic acid [1-((R)-2,2-dimethyl-[1,3]dioxolan-4-yl-methyl)-1H-pyrazol-3-yl]-amide]
3 | 6.393 | CC(C)C[C@@H](C(=O)Nc1ccn(C[C@@H](N)CO)n1)N1CC(Oc2ccccc2Cl)=CC1=O [Example 180, (S)-2-[4-(2-chloro-phenoxy)-2-oxo-2,5-dihydro-pyrrol-1-yl]-4-methyl-pentanoic acid [1-((R)-2-amino-3-hydroxy-propyl)-1H-pyrazol-3-yl]-amide]
4 | 0.197 | CC[C@@H](C)CC(C(=O)Nc1ccn(C[C@@H]2COC(C)(C)O2)n1)N1CC(Oc2ccccc2Cl)=CC1=O (stereo partly drawn) [Example 252, (R)-2-[4-(2-Chloro-phenoxy)-2-oxo-2,5-dihydro-pyrrol-1-yl]-4-methyl-hexanoic acid [1-((R)-2,2-dimethyl-[1,3]dioxolan-4-ylmethyl)-1H-pyrazol-3-yl]-amide]
5 | 0.012 | Cc1cccc(OC2=CC(=O)N([C@@H](CC3CCCCC3)C(=O)Nc3ccn(CC(C)(C)O)n3)C2)c1C [Example 204, (S)-3-cyclohexyl-2-[4-(2,3-dimethyl-phenoxy)-2-oxo-2,5-dihydro-pyrrol-1-yl]-N-[1-(2-hydroxy-2-methyl-propyl)-1H-pyrazol-3-yl]-propionamide]
6 | 0.09 | O=C(Nc1ccn(C[C@@H](O)CO)n1)C(CC1C[C@@H](F)[C@@H](F)C1)N1CC(Oc2ccccc2Cl)=CC1=O (stereo partly drawn) [Example 263, 2-[4-(2-Chloro-phenoxy)-2-oxo-2,5-dihydro-pyrrol-1-yl]-3-((1R,3S,4R)-3,4-difluoro-cyclopentyl)-N-[1-((R)-2,3-dihydroxy-propyl)-1H-pyrazol-3-yl]-propionamide]
7 | 0.033 | COc1cccc(OC2=CC(=O)N(C(CC3CCOCC3)C(=O)Nc3ccn(CC(C)(C)O)n3)C2)c1Cl (stereo not drawn) [Example 50, 2-[4-(2-Chloro-3-methoxy-phenoxy)-2-oxo-2,5-dihydro-pyrrol-1-yl]-N-[1-(2-hydroxy-2-methyl-propyl)-1H-pyrazol-3-yl]-3-(tetrahydro-pyran-4-yl)-propionamide]
8 | 0.414 | CC(C)C[C@@H](C(=O)Nc1ccn(C)n1)N1CC(Oc2cccc(O)c2F)=CC1=O [Example 127, (S)-2-[4-(2-Fluoro-3-hydroxy-phenoxy)-2-oxo-2,5-dihydro-pyrrol-1-yl]-4-methyl-pentanoic acid (1-methyl-1H-pyrazol-3-yl)-amide]
9 | 0.351 | CC(C)C[C@@H](C(=O)Nc1ccn(C[C@@H]2COC(C)(C)O2)n1)N1CC(Oc2cccc(Br)c2F)=CC1=O [Example 128, (S)-2-[4-(3-Bromo-2-fluoro-phenoxy)-2-oxo-2,5-dihydro-pyrrol-1-yl]-4-methyl-pentanoic acid [1-((R)-2,2-dimethyl-[1,3]dioxolan-4-yl-methyl)-1H-pyrazol-3-yl]-amide]
10 | 12.645 | COC1=CC(=O)N([C@@H](CC2CCCC2)C(=O)Nc2ccn(C)n2)C1 [Example 6, (S)-3-Cyclopentyl-2-(4-methoxy-2-oxo-2,5-dihydro-pyrrol-1-yl)-N-(1-methyl-1H-pyrazol-3-yl)-propionamide]
11 | 0.133 | CC(C)C[C@@H](C(=O)Nc1ccn(C[C@H]2COC(C)(C)O2)n1)N1CC(Oc2ccccc2Cl)=CC1=O [Example 174, (S)-2-[4-(2-Chloro-phenoxy)-2-oxo-2,5-dihydro-pyrrol-1-yl]-4-methyl-pentanoic acid [1-((S)-2,2-dimethyl-[1,3]dioxolan-4-yl-methyl)-1H-pyrazol-3-yl]-amide]
12 | 0.703 | CCO[C@@H](C)C[C@@H](C(=O)Nc1ccn(CC(C)(C)O)n1)N1CC(Oc2cccc(Cl)c2Cl)=CC1=O [Example 95, (2S,4S)-2-[4-(2,3-Dichloro-phenoxy)-2-oxo-2,5-dihydro-pyrrol-1-yl]-4-ethoxy-pentanoic acid [1-(2-hydroxy-2-methyl-propyl)-1H-pyrazol-3-yl]-amide]
13 | 0.006 | CC(C)(O)Cn1ccc(NC(=O)[C@H](CC2CCCCC2)N2CC(Oc3ccccc3Cl)=CC2=O)n1 [Example 61, (S)-2-[4-(2-Chloro-phenoxy)-2-oxo-2,5-dihydro-pyrrol-1-yl]-3-cyclohexyl-N-[1-(2-hydroxy-2-methyl-propyl)-1-H-pyrazol-3-yl]-propionamide]
14 | 0.009 | O=C(Nc1ccn(C[C@@H](O)CO)n1)[C@H](CC1CCCCC1)N1CC(Oc2ccccc2Cl)=CC1=O [Example 63, (S)-2-[4-(2-Chloro-phenoxy)-2-oxo-2,5-dihydro-pyrrol-1-yl]-3-cyclohexyl-N-[1-((R)-2,3-dihydroxy-propyl)-1-H-pyrazol-3-yl]-propionamide]
15 | 0.055 | O=C(O)c1ccc(NC(=O)[C@H](CC2CCCCC2)N2CC(Oc3c(F)ccc(Cl)c3F)=CC2=O)nc1 [Example 74, 6-{(S)-2-[4-(3-Chloro-2,6-difluoro-phenoxy)-2-oxo-2,5-dihydro-pyrrol-1-yl]-3-cyclohexyl-propionylamino}-nicotinic acid]
16 | 0.56 | Cc1ccccc1OC1=CC(=O)N([C@@H](CC(C)C)C(=O)Nc2ccn(CCO)n2)C1 [Example 122, (S)-4-Methyl-2-(2-oxo-4-o-tolyloxy-2,5-dihydro-pyrrol-1-yl)-pentanoic acid [1-(2-hydroxy-ethyl)-1H-pyrazol-3-yl]-amide]
17 | 0.771 | O=C(Nc1ccn(C[C@@H](O)CO)n1)[C@H](Cc1ccc(F)cc1)N1CC(Oc2ccccc2Cl)=CC1=O [Example 187, (S)-2-[4-(2-chloro-phenoxy)-2-oxo-2,5-dihydro-pyrrol-1-yl]-N-[1-((R)-2,3-dihydroxy-propyl)-1H-pyrazol-3-yl]-3-(4-fluorophenyl)-propionamide]

Row | Compound | SC1.5 (concentration of activator that produced a 50% increase in the activity of GK) [µM]
18 | COc1ccccc1OC1=CC(=O)N(C(COC(C)(C)C)C(=O)Nc2ccn(CC(C)(C)O)n2)C1 (stereo not drawn) [Example 35, 3-t-Butoxy-N-[1-(2-hydroxy-2-methyl-propyl)-1H-pyrazol-3-yl]-2-[4-(2-methoxy-phenoxy)-2-oxo-2,5-dihydro-pyrrol-1-yl]-propionamide] | 9.491
